Results on 19 compounds are retold here after patent US20180265515A1 (Genentech, Inc., priority 2015, published 2018).

Assay [1] deals with T1, isolated recombinant JAK2 kinase domain (Homo sapiens, UniProt O60674).
T1 construct: The activity of the isolated recombinant JAK1 and JAK2 kinase domain was measured
As to the kind of experiment: JAK2 enzyme assay (Caliper LabChip, Ki). To be noted: 25 μM ATP. It is filed as biochemical. Summed up:
(§1)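 Ki values fitted with Morrison tight-binding equation adjusted for ATP-competitive inhibition, using product-to-total peptide ratio read by Caliper LabChip. Reactions: isolated JAK1 or JAK2 kinase domain with N-terminal 5-carboxyfluorescein JAK3-derived peptide, 22° C for 30 min, quenched by EDTA.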

The subject of assay [2] is JAK1-dependent STAT6 phosphorylation downstream of IL-13 stimulation in BEAS-2B human bronchial epithelial cells. As to the kind of experiment: JAK1 pathway assay in BEAS-2B cells (IL-13 stimulated STAT6 phosphorylation, MSD). It is filed as cell-based. To be noted: read-out: P-STAT6 BEAS2B + IL13 IC50. Summed up: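 BEAS-2B human bronchial epithelial cells, plated the day before in complete growth medium, were preincubated with compound for 1 hr at 37° C (0.2% DMSO final), then stimulated with IL-13 at its EC90 for 15 min. STAT6 phosphorylation in lysates was read by MSD; EC50 was taken as 50% inhibition versus DMSO control.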

The target of assay [3] is T2, isolated recombinant JAK1 kinase domain (Homo sapiens, UniProt P23458).
T2 construct: The activity of the isolated recombinant JAK1 and JAK2 kinase domain was measured
T2 sequence (P23458 875-1153 limits assumed): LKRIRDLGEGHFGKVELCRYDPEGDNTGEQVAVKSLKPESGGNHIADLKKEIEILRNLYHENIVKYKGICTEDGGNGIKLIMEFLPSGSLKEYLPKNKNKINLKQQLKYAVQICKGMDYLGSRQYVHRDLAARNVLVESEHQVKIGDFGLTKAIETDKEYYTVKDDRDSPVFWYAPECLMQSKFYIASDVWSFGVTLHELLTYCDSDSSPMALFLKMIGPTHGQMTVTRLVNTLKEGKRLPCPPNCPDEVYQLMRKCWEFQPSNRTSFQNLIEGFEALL
As to the kind of experiment: JAK1 enzyme assay (Caliper LabChip, Ki). In kind it is biochemical. To be noted: recombinant JAK1 kinase domain, 25 μM ATP. Summed up: as §1

As usually defined, the pKi is the negative decadic logarithm of the Ki, by convention in mol/L. Broadly, the pIC50 is the IC50 on a negative log10 scale, so that one unit is a factor of ten.

pIC50, pKi: −log10 of the molar value.

T1 sequence (O60674 849-1124 limits assumed): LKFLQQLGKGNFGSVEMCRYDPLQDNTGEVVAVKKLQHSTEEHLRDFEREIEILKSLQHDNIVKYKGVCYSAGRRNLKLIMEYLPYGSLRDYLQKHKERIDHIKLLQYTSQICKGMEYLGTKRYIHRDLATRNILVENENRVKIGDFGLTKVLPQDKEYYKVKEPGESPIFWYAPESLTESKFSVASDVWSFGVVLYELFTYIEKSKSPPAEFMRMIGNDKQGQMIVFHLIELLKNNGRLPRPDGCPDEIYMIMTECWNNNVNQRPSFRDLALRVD

On to `CSc1ccc(OC(F)F)c(-c2nn(CC(=O)N3CCC(N4CCn5nccc5C4)CC3)cc2NC(=O)c2cnn3cccnc23)c1` [Example 79, N-[3-[2-(difluoromethoxy)-5-methylsulfanyl-phenyl]-1-[2-[4-(6,7-dihydro-4H-pyrazolo[1,5-a]pyrazin-5-yl)-1-piperidyl]-2-oxo-ethyl]pyrazol-4-yl]pyrazolo[1,5-a]pyrimidine-3-carboxamide], for which the pKi in assay [1] is 9.36; in assay [3], 9.41. In assay [2], the pIC50 is 7.46.
For `CSc1ccc(OC(F)F)c(-c2nn(CC(=O)N3CCC(NCCCC#N)CC3)cc2NC(=O)c2cnn3cccnc23)c1` [Example 64, N-[1-[2-[4-(3-cyanopropylamino)-1-piperidyl]-2-oxo-ethyl]-3-[2-(difluoromethoxy)-5-methylsulfanyl-phenyl]pyrazol-4-yl]pyrazolo[1,5-a]pyrimidine-3-carboxamide], the negative logarithm of the Ki (pKi) was 9.32 in assay [1] and 9.48 in assay [3]. In assay [2], the pIC50 was 7.28.
Taken in the same sequence, the figures for `CN(C1CCN(C(=O)Cn2cc(NC(=O)c3cnn4cccnc34)c(-c3cc(SC4CC4)ccc3OC(F)F)n2)CC1)C1COC1` [Example 171, N-[3-[5-cyclopropylsulfanyl-2-(difluoromethoxy)phenyl]-1-[2-[4-[methyl(oxetan-3-yl)amino]-1-piperidyl]-2-oxo-ethyl]pyrazol-4-yl]pyraxolo[1,5-a]pyrimidine-3-carboxamide] were 9.11, 9.37 and 7.66.
Taken in the same sequence, the figures for `CSc1ccc(OC(F)F)c(-c2nn(C)cc2NC(=O)c2cnn3cccnc23)c1` [Example 91, N-[3-[2-(difluoromethoxy)-5-methylsulfanyl-phenyl]-1-methyl-pyrazol-4-yl]pyrazolo[1,5-a]pyrimidine-3-carboxamide] were 10.15, 9.89 and 8.41.
Taken in the same sequence, the figures for `CC(C)Sc1ccc(OC(F)F)c(-c2nn(CC(=O)N3CCN(CC4CCOCC4)CC3)cc2NC(=O)c2cnn3cccnc23)c1` [Example 135, N-[3-[2-(difluoromethoxy)-5-isopropylsulfanyl-phenyl]-1-[2-oxo-2-[4-(tetrahydropyran-4-ylmethyl)piperazin-1-yl]ethyl]pyrazol-4-yl]pyrazolo[1,5-a]pyrimidine-3-carboxamide] were 9.06, 9.37 and 7.62.
In the case of `CSc1ccc(OC(F)F)c(-c2nn(CC(=O)N3CCN(CCN4CCOCC4)CC3)cc2NC(=O)c2cnn3cccnc23)c1` [Example 16, N-[3-[2-(difluoromethoxy)-5-methylsulfanyl-phenyl]-1-[2-[4-(2-morpholinoethyl)piperazin-1-yl]-2-oxo-ethyl]pyrazol-4-yl]pyrazolo[1,5-a]pyrimidine-3-carboxamide], the values for the pKi in assay [1] and in assay [3] were 9.30 and 9.41, respectively. Further, the negative logarithm of the IC50 (pIC50) in assay [2] is 7.74.
Taken in the same sequence, the figures for `CSc1ccc(OC(F)F)c(-c2nn(CC(=O)N3CCC(N(C)CC4(C)OCCO4)CC3)cc2NC(=O)c2cnn3cccnc23)c1` [Example 51, N-[3-[2-(difluoromethoxy)-5-methylsulfanyl-phenyl]-1-[2-[4-[methyl-[(2-methyl-1,3-dioxolan-2-yl)methyl]amino]-1-piperidyl]-2-oxo-ethyl]pyrazol-4-yl]pyrazolo[1,5-a]pyrimidine-3-carboxamide] were 9.01, 9.37 and 7.59.
On the same counts, the results for `CN1CCC[C@@H]1Cn1cc(NC(=O)c2cnn3cccnc23)c(-c2cc(SC3COC3)ccc2OC(F)F)n1` [Example 176, N-[3-[2-(difluoromethoxy)-5-(oxetan-3-ylsulfanyl)phenyl]-1-[[(2R)-1-methylpyrrolidin-2-yl]methyl]pyrazol-4-yl]pyrazolo[1,5-a]pyrimidine-3-carboxamide] are 8.85, 9.42 and 7.55.
As to `CSc1ccc(OC(F)F)c(-c2nn(CC(=O)N3CCC(CN4C[C@@H](C)N(CC(=O)N(C)C)C[C@@H]4C)CC3)cc2NC(=O)c2cnn3cccnc23)c1` [Example 98, N-[3-[2-(difluoromethoxy)-5-methylsulfanyl-phenyl]-1-[2-[4-[[(2S,5R)-4-[2-(dimethylamino)-2-oxo-ethyl]-2,5-dimethyl-piperazin-1-yl]methyl]-1-piperidyl]-2-oxo-ethyl]pyrazol-4-yl]pyrazolo[1,5-a]pyrimidine-3-carboxamide], the pKi in assay [1] was 8.92; in assay [3], 9.19. Further, in assay [2], the negative-log IC50 (pIC50) was 7.43.
With `CC(C)Sc1ccc(OC(F)F)c(-c2nn(CC(=O)N3CCN(CC4CCN(CC(=O)N5CCOCC5)CC4)CC3)cc2NC(=O)c2cnn3cccnc23)c1` [Example 141, N-[3-[2-(difluoromethoxy)-5-isopropylsulfanyl-phenyl]-1-[2-[4-[[1-(2-morpholino-2-oxo-ethyl)-4-piperidyl]methyl]piperazin-1-yl]-2-oxo-ethyl]pyrazol-4-yl]pyrazolo[1,5-a]pyrimidine-3-carboxamide], the negative logarithm of the Ki (pKi) in assay [1] was 8.72; in assay [3], 9.11. Besides, the negative-log IC50 (pIC50) in assay [2] was 7.44.
Take `CSc1ccc(OC(F)F)c(-c2nn(CC(=O)N3CCC(N(C)CC4(C#N)CC4)CC3)cc2NC(=O)c2cnn3cccnc23)c1` [Example 42, N-[1-[2-[4-[(1-cyanocyclopropyl)methyl-methyl-amino]-1-piperidyl]-2-oxo-ethyl]-3-[2-(difluoromethoxy)-5-methylsulfanyl-phenyl]pyrazol-4-yl]pyrazolo[1,5-a]pyrimidine-3-carboxamide]: the negative-log Ki (pKi) in assay [1] was 9.59; in assay [3], 9.77. Also, the pIC50 in assay [2] is 7.89.
Taken in the same sequence, the figures for `CSc1ccc(OC(F)F)c(-c2nn(Cc3cn(C4CCN(C5CCOC5)CC4)nn3)cc2NC(=O)c2cnn3cccnc23)c1` (stereo not drawn) [Example 96, N-[3-[2-(difluoromethoxy)-5-methylsulfanyl-phenyl]-1-[[1-(1-tetrahydrofuran-3-yl-4-piperidyl)triazol-4-yl]methyl]pyrazol-4-yl]pyrazolo[1,5-a]pyrimidine-3-carboxamide] were 9.70, 9.52 and 7.85.
In the case of `CSc1ccc(OC(F)F)c(-c2nn(CC(=O)N3CCC(N(C)CC(=O)N4CCCC4)CC3)cc2NC(=O)c2cnn3cccnc23)c1` [Example 14], the pKi was 9.17 in assay [1] and 9.49 in assay [3]. Further, in assay [2], the negative-log IC50 (pIC50) was 7.05.
Taken in the same sequence, the figures for `CSc1ccc(OC(F)F)c(-c2nn(CC(=O)N3CCC(N4CCCOCC4)CC3)cc2NC(=O)c2cnn3cccnc23)c1` [Example 45, N-[3-[2-(difluoromethoxy)-5-methylsulfanyl-phenyl]-1-[2-[4-(1,4-oxazepan-4-yl)-1-piperidyl]-2-oxo-ethyl]pyrazol-4-yl]pyrazolo[1,5-a]pyrimidine-3-carboxamide] were 9.17, 9.49 and 7.36.
For the compound `COCC(=O)N1CCN(CC2CCN(C(=O)Cn3cc(NC(=O)c4cnn5cccnc45)c(-c4cc(SC)ccc4OC(F)F)n3)CC2)CC1` [Example 82, N-[3-[2-(difluoromethoxy)-5-methylsulfanyl-phenyl]-1-[2-[4-[[4-(2-methoxyacetyl)piperazin-1-yl]methyl]-1-piperidyl]-2-oxo-ethyl]pyrazol-4-yl]pyrazolo[1,5-a]pyrimidine-3-carboxamide], the pKi in assay [1] is 9.39; in assay [3], 9.54. Also, the pIC50 in assay [2] is 7.47.
Taken in the same sequence, the figures for `CC(C)Sc1ccc(OC(F)F)c(-c2nn(CC(=O)N3CCC(NCC(C)(C)C#N)CC3)cc2NC(=O)c2cnn3cccnc23)c1` [Example 120, N-[1-[2-[4-[(2-cyano-2-methyl-propyl)amino]-1-piperidyl]-2-oxo-ethyl]-3-[2-(difluoromethoxy)-5-isopropylsulfanyl-phenyl]pyrazol-4-yl]pyrazolo[1,5-a]pyrimidine-3-carboxamide] were 8.92, 9.40 and 7.57.
Taken in the same sequence, the figures for `CSc1ccc(OC(F)F)c(-c2nn(CC(=O)N3CCC(N4CCn5cncc5C4)CC3)cc2NC(=O)c2cnn3cccnc23)c1` [Example 72, N-[3-[2-(difluoromethoxy)-5-methylsulfanyl-phenyl]-1-[2-[4-(6,8-dihydro-5H-imidazo[1,5-a]pyrazin-7-yl)-1-piperidyl]-2-oxo-ethyl]pyrazol-4-yl]pyrazolo[1,5-a]pyrimidine-3-carboxamide] were 9.44, 9.40 and 6.96.
As to `CCN1CCN(C(=O)Cn2cc(NC(=O)c3cnn4cccnc34)c(-c3cc(SC(C)C)ccc3OC(F)F)n2)CC1` [Example 121, N-[3-[2-(difluoromethoxy)-5-isopropylsulfanyl-phenyl]-1-[2-(4-ethylpiperazin-1-yl)-2-oxo-ethyl]pyrazol-4-yl]pyrazolo[1,5-a]pyrimidine-3-carboxamide], the negative logarithm of the Ki (pKi) was 8.89 in assay [1] and 9.15 in assay [3]. For the same compound, the negative logarithm of the IC50 (pIC50) in assay [2] is 7.51.
For the compound `O=C(Nc1cn(CC(=O)N2CCC(N3CCOCC3)CC2)nc1-c1cc(SC2CC2)ccc1OC(F)F)c1cnn2cccnc12` [Example 161, N-[3-[5-cyclopropylsulfanyl-2-(difluoromethoxy)phenyl]-1-[2-(4-morpholino-1-piperidyl)-2-oxo-ethyl]pyrazol-4-yl]pyrazolo[1,5-a]pyrimidine-3-carboxamide], the pKi in assay [1] was 9.19; in assay [3] it was 9.52. The pIC50 in assay [2] was 7.80.
